From article PMC11317440, “Soloxolone para-methylanilide effectively suppresses aggressive phenotype of glioblastoma cells including TGF-β1-induced glial-mesenchymal transition in vitro and inhibits growth of U87 glioblastoma xenografts in mice” (Frontiers in Pharmacology, 2024)

Assays:
[1] = test system: TGF-β1-treated U87 cells; assay: Adhesion of U87 cells to culture plastic (TrypLE treatment assay); format: cell-based, human; details: TGF-β1 50 ng/mL, non-toxic concentrations, 48 h
Method: Adhesiveness of glioblastoma cells was assessed by two independent methods. First, cell adhesion to culture plastic was tested using a trypsin treatment assay, as previously described ([Sava et al., 2004]; [Mazuryk et al., 2015]; [van Dijk et al., 2017]). Briefly, U87 and U118 cells (10,000 cells per well of a 96-well plate, n = 4) were cultured with TGF-β1 (50 ng/mL) and non-toxic concentrations of soloxolone amides for 48 h and then treated with a 1:20 dilution of TrypLE Express (Gibco, USA) in PBS for 3 min at 37°C. Non-adherent cells were then removed by a triple PBS wash, and the remaining adherent cells were fixed with 4% formaldehyde and stained with crystal violet dye (0.1% w/v). Images were captured using the iBright 1,500 Imaging System (Invitrogen, USA), and the cell-occupied area was calculated using ImageJ. Alternatively, the number of adherent cells was quantified using the MTT assay.

[2] = test system: EPNT-5 cells; assay: MTT assay 72 h, 7 and TMZ alone and combined, synergy (HSA), EPNT-5; format: cell-based, mouse
Method: (§1) The drug synergy score was calculated for the dose-response matrix according to the highest single-agent (HSA) model using the SynergyFinder + web application (https://www.synergyfinder.org/).

[3] = test system: TGF-β1-treated U118 cells; assay: Scratch (wound closure) assay, U118 cells; format: cell-based, human; details: U118, 7 50 nM, TGF-β1 50 ng/mL
Method: For the scratch assay, U118 cells were seeded in triplicate in 24-well plates at a concentration of 300,000 cells/well and allowed to adhere overnight. The cells were then scratched with a 10 μL plastic pipette tip, washed with PBS, and covered with serum-free DMEM containing TGF-β1 (50 ng/mL) and compound 7 (50 nM). Scratches were photographed at 0, 24, and 48 h using an EVOS XL Core microscope. Wound closure was determined by estimating the scratch area at each time point using ImageJ software and normalizing to the scratch area at 0 h.

[4] = test system: EPNT-5 glioblastoma cells; assay: MTT cell viability assay, EPNT-5 cells, 48 h; format: cell-based; details: Mus musculus
Method: (§2) Cells were seeded in quadruplicate in 96-well plates at 10,000 cells/well and allowed to adhere overnight. The medium was then replaced with serum-free DMEM containing increasing concentrations of soloxolone amides for 48 h. After incubation, 3-(4,5-dimethylthiazol-2-yl)-2,5-diphenyltetrazolium bromide (MTT dye) was added at a final concentration of 0.5 mg/mL and left for 2 h. The resulting formazan crystals were dissolved in DMSO and the optical density was measured at 570 nm using a Multiscan RC plate reader (Thermo LabSystems, Helsinki, Finland).

[5] = test system: SMAD2/3; assay: SMAD2/3 nuclear translocation (immunofluorescence), U87 cells; format: cell-based, human; details: U87, 7 50 nM pretreatment 48 h, TGF-β1 50 ng/mL 1 h
Method: U87 cells (150,000 cells/well) were allowed to attach to glass coverslips in 24-well plates prior to 48-h incubation with compound 7 (50 nM) under serum-free conditions, followed by stimulation with TGF-β1 (50 ng/mL) for 1 h. After fixation in 4% formaldehyde for 20 min, cells were incubated with primary antibodies against Smad2/3 (1:100, ab202445) for 1 h under permeabilizing conditions (0.1% Triton X100, 5 mg/mL BSA, 37°C) and Alexa Fluor 488-conjugated secondary antibodies (1:500, ab150077) for 1 h in the dark. Finally, nuclei were stained with DAPI (1 μg/mL) for 10 min and cells were mounted on glass slides with Fluoromount-G (Thermo Fisher Scientific, Rockford, IL, USA). Images were captured using a LSM710 confocal microscope (Zeiss, Oberkochen, Germany) at ×40 magnification. Nuclear translocation was quantified by measuring the ratio of nuclear to perinuclear intensity of Alexa Fluor 488 in CellProfiler software (Broad Institute, Cambridge, MA, USA) for 50 cells per experimental group (n = 3).

[6] = test system: N-cadherin, fibronectin, Slug, OLIG2 expression in TGF-β1-induced U87 cells; assay: qRT-PCR of GMT markers in U87 cells; format: cell-based, human; details: 48 h
Method: Total RNA was extracted using TRIzol Reagent (Ambion, Austin, TX, USA) according to the manufacturer’s protocol. Subsequently, the first strand cDNA was synthesized from 4 μg of total RNA using an oligo (dT)18 primers and M-MuLV-RH revertase (Biolabmix, Novosibirsk, Russia). Finally, RT-qPCR was performed using specific primers (Table 1) and BioMaster SYBR Blue reagent kit (Biolabmix, Novosibirsk, Russia). Relative expression was determined by normalization to the housekeeping gene HPRT using the 2^−ΔΔCT method (Livak and Schmittgen 2001).

[7] = test system: U118 cells; assay: MTT assay 72 h, 7 and TMZ alone and combined, synergy (HSA), U118; format: cell-based, human
Method: as §1

[8] = test system: non-malignant human hFF3 fibroblasts; assay: MTT cell viability assay, hFF3 fibroblasts, 48 h; format: cell-based; details: 7 at 400 nM
Method: as §2

[9] = test system: TGF-β1-induced U87 cells; assay: Cell morphology (cell size) of TGF-β1-induced U87 cells; format: cell-based, human; details: TGF-β1 50 ng/mL, non-toxic concentrations, 48 h
Method: After seeding at a concentration of 5,000 cells/well in triplicate in 96-well plates and incubating overnight, U87 and U118 cells were exposed to TGF-β1 (50 ng/mL) and non-toxic concentrations of soloxolone amides for 48 h. An EVOS XL Core microscope with an integrated CMOS camera (Thermo Fisher Scientific, USA) was then used to examine cell morphology at ×20 magnification. Aspect ratio (AR) and area were quantified for at least 150 cells in each experimental group using ImageJ software (NIH, USA).

Cc1ccc(NC(=O)[C@@]2(C)CC[C@]3(C)CC[C@]4(C)[C@H](C(=O)C=C5[C@@]6(C)C=C(C#N)C(=O)C(C)(C)C6CC[C@]54C)[C@@H]3C2)cc1 (stereo partly shown) [compound 7, N-p-tolyl-2-cyano-3,12-dioxo-18βH-olean-9(11),1(2)-dien-30-amide]
adhesion of TGF-β1-treated U87 cells to culture plastic (MTT readout) [1]: one of the most pronounced pro-adhesive effects
adhesion of TGF-β1-treated U87 cells to culture plastic (crystal violet) [1]: restoring it to control levels
effect of 7 on TMZ cytotoxicity in EPNT-5 cells ([2]; 7 at 50 nM): antagonistic effect
IC50 ([2]; Mus musculus, MTT): 199 nM
effect on TGF-β1-enhanced wound closure at 24 h ([3]; 24 h): completely reversed
reduction of the effect of TGF-β1 on wound closure at 48 h ([3]; 48 h): 34%
IC50 [4]: 257 nM
reduction of nuclear-cytoplasmic ratio of SMAD2/3 [5]: 52%
upregulation of OLIG2 ([6]; TGF-β1-induced U87 cells, 7 50 nM): 2 fold
reduction of N-cadherin expression compared to TGF-β1-stimulated cells ([6]; U87, 7 50 nM, TGF-β1 50 ng/mL): 67.6%
reduction of Slug expression compared to TGF-β1-stimulated cells ([6]; U87, 7 50 nM, TGF-β1 50 ng/mL): 35.8%
reduction of fibronectin expression compared to TGF-β1-stimulated cells ([6]; U87, 7 50 nM, TGF-β1 50 ng/mL): 39.2%
IC50 ([7]; Homo sapiens, MTT): 169 nM
reduction of the cytotoxic effect by NAC ([7]; U118, NAC 2 mM, TMZ 125 μM, 7 100 nM): 80.3%
death of hFF3 cells [8]: about 21%
effect on size/morphology of TGF-β1-induced U87 cells [9]: restored their morphological characteristics to the control cells
